From patent US11161842B2, “Bifunctional molecules for degradation of EGFR and methods of use” (Dana-Farber Cancer Institute, Inc., priority 2016, dated 2021)

Assays:
[1] = biological target: T1, T790M/L858R transformed Ba/F3 cells (Homo sapiens, UniProt P00533, T790M/L858R, cells depend on it); assay: Ba/F3 cell proliferation (MTS) assay, T790M/L858R; assay type: cell-based, murine; conditions: for EC50: antiproliferative activity; for % control: compound at 1 μM, inhibition of growth as percent of control
T1 construct: The constructs were shuttled into the retroviral vector JP 1540 using the BD Creator™ System (BD Biosciences)
T1 sequence (P00533 whole entry T790M/L858R): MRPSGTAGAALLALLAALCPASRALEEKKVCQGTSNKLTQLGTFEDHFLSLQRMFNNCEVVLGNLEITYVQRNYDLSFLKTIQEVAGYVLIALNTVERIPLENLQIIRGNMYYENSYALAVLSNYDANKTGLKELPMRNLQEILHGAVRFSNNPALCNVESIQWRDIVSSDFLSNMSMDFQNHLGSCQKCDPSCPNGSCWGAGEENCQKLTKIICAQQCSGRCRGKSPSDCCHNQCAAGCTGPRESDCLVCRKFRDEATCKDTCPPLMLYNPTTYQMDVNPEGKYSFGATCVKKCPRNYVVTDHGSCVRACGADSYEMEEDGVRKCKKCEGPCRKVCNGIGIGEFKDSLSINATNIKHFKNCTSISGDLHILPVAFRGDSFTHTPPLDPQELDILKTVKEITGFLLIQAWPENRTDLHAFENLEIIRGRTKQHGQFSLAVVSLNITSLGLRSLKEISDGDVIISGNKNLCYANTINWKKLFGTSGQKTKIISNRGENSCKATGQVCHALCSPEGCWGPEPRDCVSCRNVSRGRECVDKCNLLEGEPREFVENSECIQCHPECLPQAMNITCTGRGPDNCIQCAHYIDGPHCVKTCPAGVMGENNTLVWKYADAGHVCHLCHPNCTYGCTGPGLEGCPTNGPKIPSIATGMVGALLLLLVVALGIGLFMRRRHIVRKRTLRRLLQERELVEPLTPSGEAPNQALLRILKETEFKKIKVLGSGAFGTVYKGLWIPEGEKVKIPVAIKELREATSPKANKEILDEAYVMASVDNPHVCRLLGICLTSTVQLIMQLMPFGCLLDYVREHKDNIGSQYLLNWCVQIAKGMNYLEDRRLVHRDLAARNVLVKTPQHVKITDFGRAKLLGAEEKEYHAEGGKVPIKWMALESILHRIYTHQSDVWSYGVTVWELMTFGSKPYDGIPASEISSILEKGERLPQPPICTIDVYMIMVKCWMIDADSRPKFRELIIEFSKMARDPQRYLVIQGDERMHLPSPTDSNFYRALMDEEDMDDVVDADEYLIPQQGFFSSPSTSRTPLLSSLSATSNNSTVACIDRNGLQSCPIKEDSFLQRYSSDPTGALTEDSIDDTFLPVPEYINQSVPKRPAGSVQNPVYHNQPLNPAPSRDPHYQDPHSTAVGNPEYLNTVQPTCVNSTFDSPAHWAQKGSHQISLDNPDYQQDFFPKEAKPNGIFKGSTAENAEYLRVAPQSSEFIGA
From the text: The EGFR mutant L858R, Del E746_A750, L858R/T790M, DelE746_A750/T790M, L858R/T790M/C797S and Del/T790M/C797S Ba/F3 cells have been previously described (Zhou, W., Ercan, D., Chen, L., Yun, C. H., Li, D., Capelletti, M., Cortot, A. B., Chirieac, L., Iacob, R. E., Padera, R., et al. “Novel mutant-selective EGFR kinase inhibitors against EGFR T790M,” Nature 462, (2009), 1070-1074). All cell lines were maintained in RPMI 1640 (Cellgro; Mediatech Inc., Herndon, Calif.) supplemented with 10% FBS 100 units/mL penicillin, 100 units/mL streptomycin, and 2 mM glutamine. L858R cells were maintained in ACL-4 media (Invitrogen, Carlsbad, Calif.) supplemented with 5% FBS, 100 units/mL penicillin, 100 units/mL streptomycin, and 2 mM glutamine. The EGFR I941R mutation was introduced via site directed mutagenesis using the Quick Change Site-Directed Mutagenesis kit (Stratagene; La Jolla, Calif.) according to the manufacturer's instructions. All constructs were confirmed by DNA sequencing. The constructs were shuttled into the retroviral vector JP 1540 using the BD Creator™ System (BD Biosciences). Ba/F3 cells were infected with retrovirus and according to standard protocols, as described previously (Zhou et al, Nature 2009). Stable clones were obtained by selection in puromycin (2 μg/ml).
Growth and inhibition of growth was assessed by MTS assay and was performed according to previously established methods (Zhou et al., Nature 2009). The MTS assay is a colorimetric method for determining the number of viable cells that is based on the bioreduction of MTS by cells to a formazan product that is soluble in cell culture medium and can be detected spectrophotometrically. Ba/F3 cells of different EGFR genotypes were exposed to treatment for 72 hours and the number of cells used per experiment determined empirically and has been previously established (Zhou et al., Nature 2009). All experimental points were set up in six wells and all experiments were repeated at least three times. […] The curves were fitted using a non-linear regression model with a sigmoidal dose response.
Compounds of Table 1 were tested at a concentration of 1 μM against T790M/L858R transformed Ba/F3 cells. The assay, as described in Example 42, measured inhibition of growth as a percent of the inhibitory activity of the control. In Table 1, A is 0<% control <25, B is 25<% control <50, C is 50<% control <75, and D is 75<% control.
Compounds of Table 2 were tested in a T790M/L858R transformed Ba/F3 cell line as described in Example 42 and the EC50 values were calculated. In Table 2, A is EC50<500 nM, B is 500 nM<EC50<1000 nM, C is 1000 nM<EC50<5000 nM, and D is 5000 nM<EC50.

[2] = biological target: T2, T790M/L858R/C797S transformed Ba/F3 cells (Homo sapiens, UniProt P00533, T790M/C797S/L858R, cells depend on it); assay: Ba/F3 cell proliferation (MTS) assay, T790M/L858R/C797S; assay type: cell-based, murine; conditions: antiproliferative activity
T2 construct: The constructs were shuttled into the retroviral vector JP 1540 using the BD Creator™ System (BD Biosciences)
T2 sequence (P00533 whole entry T790M/C797S/L858R): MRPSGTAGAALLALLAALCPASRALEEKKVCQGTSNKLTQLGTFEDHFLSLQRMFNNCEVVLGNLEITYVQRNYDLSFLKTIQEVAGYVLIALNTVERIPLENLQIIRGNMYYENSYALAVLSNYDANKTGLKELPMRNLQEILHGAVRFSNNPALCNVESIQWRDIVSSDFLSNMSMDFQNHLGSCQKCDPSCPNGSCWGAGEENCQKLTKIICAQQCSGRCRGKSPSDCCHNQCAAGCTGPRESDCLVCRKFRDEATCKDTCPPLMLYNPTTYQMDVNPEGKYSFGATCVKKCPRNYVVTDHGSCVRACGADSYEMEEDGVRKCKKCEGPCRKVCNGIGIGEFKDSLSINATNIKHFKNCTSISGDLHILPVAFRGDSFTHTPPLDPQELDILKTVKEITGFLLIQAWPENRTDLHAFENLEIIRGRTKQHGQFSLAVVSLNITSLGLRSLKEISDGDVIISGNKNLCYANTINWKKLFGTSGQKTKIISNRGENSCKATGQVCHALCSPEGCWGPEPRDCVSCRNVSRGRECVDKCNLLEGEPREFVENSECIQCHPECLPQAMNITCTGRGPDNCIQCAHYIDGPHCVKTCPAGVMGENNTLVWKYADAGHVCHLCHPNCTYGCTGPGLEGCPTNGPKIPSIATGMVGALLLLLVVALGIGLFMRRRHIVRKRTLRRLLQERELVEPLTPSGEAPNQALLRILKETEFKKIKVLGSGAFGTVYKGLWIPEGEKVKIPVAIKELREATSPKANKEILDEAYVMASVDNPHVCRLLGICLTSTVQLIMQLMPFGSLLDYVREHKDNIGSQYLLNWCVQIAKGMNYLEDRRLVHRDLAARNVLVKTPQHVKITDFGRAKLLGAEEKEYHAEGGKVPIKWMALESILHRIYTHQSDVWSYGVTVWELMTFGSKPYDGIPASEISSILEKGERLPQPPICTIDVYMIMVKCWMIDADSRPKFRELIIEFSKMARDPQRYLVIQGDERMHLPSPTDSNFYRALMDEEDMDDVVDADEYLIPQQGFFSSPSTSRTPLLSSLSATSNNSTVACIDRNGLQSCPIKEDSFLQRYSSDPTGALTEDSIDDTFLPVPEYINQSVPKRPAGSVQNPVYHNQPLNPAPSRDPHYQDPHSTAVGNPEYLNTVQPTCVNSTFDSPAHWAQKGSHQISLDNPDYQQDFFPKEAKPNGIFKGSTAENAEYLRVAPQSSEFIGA

| EC50 [1] | % control [1] | EC50 [2] | Compound |
| --- | --- | --- | --- |
| 1 to 5 µM | B (B is 25<% control <50) | > 5 µM | O=C1CCC(N2C(=O)c3cccc(NCCCCCCN4CCN(c5ccc(-c6ccc7c(c6)C(=O)N(C(C(=O)Nc6nccs6)c6cc(F)ccc6O)C7)cc5)CC4)c3C2=O)C(=O)N1 (stereo not drawn) [Compound I-11, 2-(6-(4-(4-(6-((2-(2,6-Dioxopiperidin-3-yl)-1,3-dioxoisoindolin-4-yl)amino)hexyl)piperazin-1-yl)phenyl)-1-oxoisoindolin-2-yl)-2-(5-fluoro-2-hydroxyphenyl)-N-(thiazol-2-yl)acetamide] |
| > 5 µM | – | > 5 µM | Cc1ncsc1-c1ccc([C@H](C)NC(=O)[C@@H]2C[C@@H](O)CN2C(=O)[C@@H](NC(=O)CCOCCOCCN2CCN(c3ccc(-c4ccc5c(c4)C(=O)N(C(C(=O)Nc4nccs4)c4ccccc4)C5)cn3)CC2)C(C)(C)C)cc1 (stereo partly drawn) [Compound I-24, (2S,4R)-1-((2S)-3,3-Dimethyl-2-(3-(2-(2-(4-(5-(3-oxo-2-(2-oxo-1-phenyl-2-(thiazol-2-ylamino)ethyl)isoindolin-5-yl)pyridin-2-yl)piperazin-1-yl)ethoxy)ethoxy)propanamido)butanoyl)-4-hydroxy-N—((S)-1-(4-(4-methylthiazol-5-yl)phenyl)ethyl)pyrrolidine-2-carboxamide] |
| 1 to 5 µM | D (D is 75<% control) | > 5 µM | O=C1CCC(N2C(=O)c3cccc(NCCOCCOCCOCCN4CCN(c5ccc(-c6ccc7c(c6)C(=O)N(C(C(=O)Nc6nccs6)c6ccccc6O)C7)cn5)CC4)c3C2=O)C(=O)N1 (stereo not drawn) [Compound I-14, 2-(6-(6-(4-(2-(2-(2-(2-((2-(2,6-Dioxopiperidin-3-yl)-1,3-dioxoisoindolin-4-yl)amino)ethoxy)ethoxy)ethoxy)ethyl)piperazin-1-yl)pyridin-3-yl)-1-oxoisoindolin-2-yl)-2-(2-hydroxyphenyl)-N-(thiazol-2-yl)acetamide] |
| – | D (D is 75<% control) | – | Cc1ncsc1-c1ccc(CNC(=O)[C@@H]2C[C@@H](O)CN2C(=O)[C@@H](NC(=O)CCOCCOCCOCCC(=O)N2CCN(c3ccc(-c4ccc5c(c4)C(=O)N(C(C(=O)Nc4nccs4)c4ccccc4)C5)cc3)CC2)C(C)(C)C)cc1 (stereo partly drawn) [Compound I-25, (2S,4R)-1-((2S)-2-(tert-Butyl)-4,16-dioxo-16-(4-(4-(3-oxo-2-(2-oxo-1-phenyl-2-(thiazol-2-ylamino)ethyl)isoindolin-5-yl)phenyl)piperazin-1-yl)-7,10,13-trioxa-3-azahexadecanoyl)-4-hydroxy-N-(4-(4-methylthiazol-5-yl)benzyl)pyrrolidine-2-carboxamide] |
| < 0.5 µM | A (A is 0<% control <25) | < 0.5 µM | O=C1CCC(N2C(=O)c3cccc(NCCOCCOCCOCCOCCN4CCN(c5ccc(-c6ccc7c(c6)C(=O)N(C(C(=O)Nc6nccs6)c6ccccc6)C7)cc5)CC4)c3C2=O)C(=O)N1 (stereo not drawn) [Compound I-20, 2-(6-(4-(4-(14-((2-(2,6-Dioxopiperidin-3-yl)-1,3-dioxoisoindolin-4-yl)amino)-3,6,9,12-tetraoxatetradecyl)piperazin-1-yl)phenyl)-1-oxoisoindolin-2-yl)-2-phenyl-N-(thiazol-2-yl)acetamide] |
| < 0.5 µM | A (A is 0<% control <25) | 0.5 to 1 µM | O=C1CCC(N2C(=O)c3cccc(NCCOCCOCCOCCC(=O)N4CCN(c5ccc(-c6ccc7c(c6)C(=O)N(C(C(=O)Nc6nccs6)c6ccccc6)C7)cc5)CC4)c3C2=O)C(=O)N1 (stereo not drawn) [Compound I-1, 2-(6-(4-(4-(3-(2-(2-(2-((2-(2,6-Dioxopiperidin-3-yl)-1,3-dioxoisoindolin-4-yl)amino)ethoxy)ethoxy)ethoxy)propanoyl)piperazin-1-yl)phenyl)-1-oxoisoindolin-2-yl)-2-phenyl-N-(thiazol-2-yl)acetamide] |
| 1 to 5 µM | C (C is 50<% control <75) | > 5 µM | O=C1CCC(N2C(=O)c3cccc(NC4CN(CCOCCOCCN5CCN(c6ccc(-c7ccc8c(c7)C(=O)N(C(C(=O)Nc7nccs7)c7ccccc7)C8)cc6)CC5)C4)c3C2=O)C(=O)N1 (stereo not drawn) [Compound I-15, 2-(6-(4-(4-(2-(2-(2-(3-((2-(2,6-Dioxopiperidin-3-yl)-1,3-dioxoisoindolin-4-yl)amino)azetidin-1-yl)ethoxy)ethoxy)ethyl)piperazin-1-yl)phenyl)-1-oxoisoindolin-2-yl)-2-phenyl-N-(thiazol-2-yl)acetamide] |
| 1 to 5 µM | C (C is 50<% control <75) | > 5 µM | O=C1CCC(N2C(=O)c3cccc(NC4CN(CCOCCOCCOCCN5CCN(c6ccc(-c7ccc8c(c7)C(=O)N(C(C(=O)Nc7nccs7)c7ccccc7)C8)cc6)CC5)C4)c3C2=O)C(=O)N1 (stereo not drawn) [Compound I-16, 2-(6-(4-(4-(2-(2-(2-(2-(3-((2-(2,6-Dioxopiperidin-3-yl)-1,3-dioxoisoindolin-4-yl)amino)azetidin-1-yl)ethoxy)ethoxy)ethoxy)ethyl)piperazin-1-yl)phenyl)-1-oxoisoindolin-2-yl)-2-phenyl-N-(thiazol-2-yl)acetamide] |
| 0.5 to 1 µM | A (A is 0<% control <25) | > 5 µM | O=C1CCC(N2C(=O)c3cccc(NCCOCCC(=O)N4CCN(c5ccc(-c6ccc7c(c6)C(=O)N(C(C(=O)Nc6nccs6)c6cc(F)ccc6O)C7)cc5)CC4)c3C2=O)C(=O)N1 (stereo not drawn) [Compound I-29, 2-(6-(4-(4-(3-(2-((2-(2,6-dioxopiperidin-3-yl)-1,3-dioxoisoindolin-4-yl)amino)ethoxy)propanoyl)piperazin-1-yl)phenyl)-1-oxoisoindolin-2-yl)-2-(5-fluoro-2-hydroxyphenyl)-N-(thiazol-2-yl)acetamide] |
| < 0.5 µM | A (A is 0<% control <25) | < 0.5 µM | O=C1CCC(N2C(=O)c3cccc(NCCOCCOCCOCCN4CCN(c5ccc(-c6ccc7c(c6)C(=O)N(C(C(=O)Nc6nccs6)c6ccccc6)C7)cc5)CC4)c3C2=O)C(=O)N1 (stereo not drawn) [Compound I-18, 2-(6-(4-(4-(2-(2-(2-(2-((2-(2,6-Dioxopiperidin-3-yl)-1,3-dioxoisoindolin-4-yl)amino)ethoxy)ethoxy)ethoxy)ethyl)piperazin-1-yl)phenyl)-1-oxoisoindolin-2-yl)-2-phenyl-N-(thiazol-2-yl)acetamide] |
| 0.5 to 1 µM | A (A is 0<% control <25) | > 5 µM | O=C1CCC(N2C(=O)c3cccc(NCCOCCOCCC(=O)N4CCN(c5ccc(-c6ccc7c(c6)C(=O)N(C(C(=O)Nc6nccs6)c6cc(F)ccc6O)C7)cc5)CC4)c3C2=O)C(=O)N1 (stereo not drawn) [Compound I-28, 2-(6-(4-(4-(3-(2-(2-((2-(2,6-dioxopiperidin-3-yl)-1,3-dioxoisoindolin-4-yl)amino)ethoxy)ethoxy)propanoyl)piperazin-1-yl)phenyl)-1-oxoisoindolin-2-yl)-2-(5-fluoro-2-hydroxyphenyl)-N-(thiazol-2-yl)acetamide] |
| – | D (D is 75<% control) | – | O=C1CCC(N2C(=O)c3cccc(NCCOCCC(=O)N4CCN(c5ccc(-c6ccc7c(c6)C(=O)N(C(C(=O)Nc6nccs6)c6ccccc6)C7)cc5)CC4)c3C2=O)C(=O)N1 (stereo not drawn) [Compound I-8, 2-(6-(4-(4-(3-(2-((2-(2,6-Dioxopiperidin-3-yl)-1,3-dioxoisoindolin-4-yl)amino)ethoxy)propanoyl)piperazin-1-yl)phenyl)-1-oxoisoindolin-2-yl)-2-phenyl-N-(thiazol-2-yl)acetamide] |
| – | D (D is 75<% control) | – | O=C1CCC(N2C(=O)c3cccc(N4CCN(c5ccc(-c6ccc7c(c6)C(=O)N(C(C(=O)Nc6nccs6)c6ccccc6)C7)cc5)CC4)c3C2=O)C(=O)N1 (stereo not drawn) [Compound I-35] |

| Compound | EC50 [1] | % control [1] | EC50 [2] |
| --- | --- | --- | --- |
| O=C(Nc1nccs1)C(c1cc(F)ccc1O)N1Cc2ccc(-c3ccc(N4CCNCC4)cc3)cc2C1=O (stereo not drawn) [TL Compd 2] | – | D (D is 75<% control) | – |
